Holding throughout (assay type): in vivo
Experiment [1] has as its system rice brown planthopper. Briefly: Test Example 5: test diluent scattered on rice plant seedling, rice brown planthopper released. The note with it: Nilaparvata lugens, 144 h; 500 ppm, 10 ml scattered on rice plant seedling, 30 first-instars released, counted after six days at 25° C.; read-out: Control value. The method, then: The formulations were diluted with water so that the concentration of the active ingredient became 500 ppm and thus test diluents were prepared. On the other hand, to a rice plant seedling (two weeks after seeding, second leaf development stage) planted in a plastic cup, any one of the diluents (10 ml) was scattered. After the drug solution scattered on the rice plant was dried, 30 first-instars of rice brown planthopper were released on the rice plant, which was kept in the green house at 25° C. for six days. Thereafter, the number of rice brown planthopper parasitic on rice plant was counted and the control value was calculated by the following equation. Control value(%)={1−(Cb×Tai)/(Cai×Tb)}×100 wherein each character represents the following meaning: Cb: number of insects in non-treated section before treatment Cai: number of insects in non-treated section during observation Tb: number of insects in treated section before treatment Tai: number of insects in treated section during observation

Experiment [2] relates to rice brown planthopper. Briefly: Test Example 6: plant foot irrigation of rice plant seedling, rice brown planthopper released after seven days. Particulars: Nilaparvata lugens, 144 h; 500 ppm, 5 ml plant foot irrigation of rice seedling; first-instars released after seven days, counted six days after; read-out: Control value. The method, then: The formulations were diluted with water so that the concentration of the active ingredient became 500 ppm and thus test diluents were prepared. On the other hand, a plant foot of rice plant seedling (two weeks after seeding, second leaf development stage) planted in a plastic cup was irrigated with any one of diluents (5 ml). The seedling was kept in a green house of 25° C. for seven days. Thirty first-instars of rice brown planthopper were released to the seedling, which was kept in the green house at 25 C for six days. Thereafter, the number of survived rice brown planthopper parasitic on rice plant leaves was counted, and the control value was calculated by the following equation. Control value(%)={1−(Cb×Tai)/(Cai×Tb)}×100 wherein each character represents the following meaning: Cb: number of insects in non-treated section before treatment Cai: number of insects in non-treated section during observation Tb: number of insects in treated section before treatment Tai: number of insects in treated section during observation

Experiment [3] has as its system tobacco whitefly. Briefly: Test Example 4: test diluent scattered on tomato seedling with hatched tobacco whitefly larvae. The note with it: 168 h; 500 ppm, 10 ml/cup scattered on tomato seedling at larvae stage, counted after seven days at 25° C.; read-out: Control value. The method, then:
The formulations were diluted with water so that the concentration of the active ingredient became 500 ppm and thus test diluents were prepared. On the other hand, by releasing tobacco whitefly imagos to a tomato seedling planted in a plastic cup to allow them to lay eggs for about 24 hours. The tomato seedling was kept in a green house for eight days. At the stage in which larvae hatched from the laid eggs, any of the test diluents was scattered at the rate of 10 ml/cup. The tomato seedling was kept in the greenhouse at 25° C. for seven days. The number of survived larvae on tomato leaves was counted, and the control value was calculated by the following equation. Control value(%)={1−(Cb×Tai)/(Cai×Tb)}×100 wherein each character represents the following meaning: Cb: number of insects in non-treated section before treatment Cai: number of insects in non-treated section during observation Tb: number of insects in treated section before treatment Tai: number of insects in treated section during observation

Experiment [4] relates to cotton aphids (Aphis gossypii Glover). Briefly: Test Example 1: test diluent scattered on cucumber seedling inoculated with cotton aphids. The note with it: 120 h, 500 ppm active ingredient, 10 ml scattered on cucumber seedling, counted five days after scattering, read-out: Control value. The method, then:
The formulations were diluted with water so that the concentration of the active ingredient became 500 ppm and thus test diluents were prepared. On the other hand, a cucumber seedling (second true leaf development stage) planted in a plastic cup was inoculated with about 30 cotton aphids (Aphis gossypii Glover) and allowed to stand for one day. To the seedling, any one of the diluents (10 ml) was scattered. Five days after the scattering, the number of survived cotton aphids parasitic on the cucumber leaves was counted, and the control value was calculated by the following equation. Control value(%)={1−(Cb×Tai)/(Cai×Tb)}×100 wherein each character represents the following meaning: Cb: the number of insects in non-treated section before treatment Cai: the number of insects in non-treated section during observation Tb: the number of insects in treated section before treatment Tai: the number of insects in treated section during observation

For experiment [5], the system named is cotton aphids. Briefly: Test Example 2: plant foot irrigation of cucumber seedling in urethane mat, cotton aphids inoculated one day after treatment. Particulars: 168 h; 500 ppm, 5 ml plant foot irrigation, urethane mat; aphids inoculated one day after treatment, counted seven days after; read-out: Control value. On the procedure: The formulations were diluted with water so that the concentration of the active ingredient became 500 ppm and thus test diluents were prepared. On the other hand, a plant foot of cucumber seedling (second true leaf development stage) planted in a urethane mat was irrigated with any one of diluents (5 ml). One day after the treatment, the cucumber leaves were inoculated with 30 cotton aphids (all stages). Further seven days after, the number of survived cotton aphids parasitic on the cucumber leaves was counted, and the control value was calculated by the following equation. Control value(%)={1−(Cb×Tai)/(Cai×Tb)}×100 wherein each character represents the following meaning: Cb: number of insects in non-treated section before treatment Cai: number of insects in non-treated section during observation Tb: number of insects in treated section before treatment Tai: number of insects in treated section during observation

On to `FC(F)(F)c1cnc2oc(-c3ccncc3Cl)nc2c1` [Active Compound 139, 2-(3-chloropyridin-4-yl)-6-(trifluoromethyl)oxazolo[5,4-b]pyridine], for which the pest or weed control at 500 ppm in experiment [1] and in experiment [2] was at least 90% each time.

`CCCc1ccc2oc(-c3ccncc3)nc2c1` [active compound 1, 5-propyl-2-(pyridin-4-yl)-benzoxazole]: the pest or weed control at 500 ppm in experiment [3] and in experiment [1] was at least 90% throughout.

On to `CC(C)(C)c1ccc2nc(-c3ccncc3)oc2c1` [active compound 8, 6-tert-butyl-2-(pyridin-4-yl)-benzoxazole], for which the pest or weed control at 500 ppm in experiment [3] and in experiment [1] was at least 90% in each case.

As for `FC(F)(F)c1ccc2oc(-c3ccncc3-c3ccccc3)nc2c1` [active compound 32, 2-(3-phenylpyridin-4-yl)-5-(trifluoromethyl)benzoxazole], the pest or weed control at 500 ppm in experiment [1] was at least 90%.

Consider `C#Cc1cnccc1-c1nc2cc(C(F)(F)F)ccc2o1` [active compound 34, 2-(3-ethynylpyridin-4-yl)-5-(trifluoromethyl)benzoxazole], for which the pest or weed control at 500 ppm in experiment [4], in experiment [3] and in experiment [1] was at least 90% each time.

Consider `Cc1cnn(-c2cnccc2-c2nc3cc(C(F)(F)F)ccc3o2)c1` [active compound 61, 2-[3-(4-methylpyrazole-1-yl)pyridin-4-yl]-5-(trifluoromethyl)benzoxazole], for which the pest or weed control at 500 ppm in experiment [4] and in experiment [1] was at least 90% in each case.

Consider `FC(F)(F)C(F)(c1ccc2oc(-c3ccncc3)nc2c1)C(F)(F)F` [active compound 67, 2-(pyridin-4-yl)-5-(heptafluoroisopropyl)benzoxazole], for which, in experiment [1], the pest or weed control at 500 ppm is at least 90%.

Take `FC(F)(F)COc1cnccc1-c1nc2cc3c(cc2o1)C(F)(F)OC3(F)F` [active compound 89, 5,5,7,7-tetrafluoro-2-[3-(2,2,2-trifluoroethoxy)pyridin-4-yl]-5,7-dihydro-furo[3′,4′:4,5]benzo[1,2-d]oxazole]: the pest or weed control at 500 ppm in experiment [4], in experiment [3] and in experiment [1] was at least 90% each time.

Turning to `CC(C)(C)c1ccc2oc(-c3ccncc3C(F)(F)F)nc2c1` [active compound 107, 5-tert-butyl-2-(3-trifluoromethylpyridin-4-yl)benzoxazole], the pest or weed control at 500 ppm in experiment [5], in experiment [3], in experiment [1] and in experiment [2] was at least 90% throughout.

Consider `CCOCCOc1cnccc1-c1nc2cc(C(F)(F)F)ccc2o1` [active compound 122, 2-[3-(2-ethoxyethoxy)pyridin-4-yl]-5-(trifluoromethyl)benzoxazole], for which the pest or weed control at 500 ppm in experiment [4], in experiment [3] and in experiment [1] was at least 90% throughout.

Turning to `CCCCCOc1cnccc1-c1nc2cc(C(F)(F)F)ccc2o1` [active compound 123, 2-(3-pentyloxypyridin-4-yl)-5-(trifluoromethyl)benzoxazole], the pest or weed control at 500 ppm in experiment [3] and in experiment [1] was at least 90% in each case.

Take `FC(F)Oc1cnccc1-c1nc2cc(C(F)(F)F)ccc2o1` [active compound 126, 2-(3-difluoromethoxypyridin-4-yl)-5-(trifluoromethyl)benzoxazole]: the pest or weed control at 500 ppm in experiment [4], in experiment [5], in experiment [3] and in experiment [2] was at least 90% each time.

As for `FC(F)(F)c1cnc2oc(-c3ccncc3)nc2c1` [active compound 138, 2-pyridin-4-yl-6-(trifluoromethyl)oxazolo[5,4-b]pyridine], the pest or weed control at 500 ppm in experiment [1] is at least 90%.

The record behind these values is patent US8445522B2, “Substituted 2-(4-pyridyl)benzoxazoles, and compositions thereof, for use in arthropod pest control” (Sumitomo Chemical Company, Limited, priority 2009, dated 2013).
